Reference: patent US20250312462A1, “PAK1 DEGRADERS AND METHODS OF USE THEREOF” (INSTITUTE FOR CANCER RESEARCH D/B/A THE RESEARCH INSTITUTE …, priority 2022, published 2025)

Columns and labels:
Assay in all cases: KINOMEscan
Settings in all cases: read-out: Percent Control
MST3 = MST3 (Homo sapiens, UniProt Q9Y6E0)
Procedure: (§1) The kinase engagement assay (KINOMEscan®) was performed by DiscoverX assessing binding abilities toward a set of kinases.

[1] = molecular target: RSK1(Kin.Dom.2-C-terminal) (Homo sapiens, UniProt Q15418)
Procedure: as §1

NEK10 = NEK10 (Homo sapiens, UniProt Q6ZWH5)
Procedure: as §1

[2] = molecular target: ABL1(F317L)-phosphorylated (Homo sapiens, UniProt P00519, F317L)
Procedure: as §1

YSK4 = YSK4 (Homo sapiens, UniProt Q56UN5)
Procedure: as §1

SRPK2 = SRPK2 (Homo sapiens, UniProt P78362)
Procedure: as §1

[3] = molecular target: RSK2(Kin.Dom.2-C-terminal) (Homo sapiens, UniProt P51812)
Procedure: as §1

RIOK1 = RIOK1 (Homo sapiens, UniProt Q9BRS2)
Procedure: as §1

PRKCQ = PRKCQ (Homo sapiens, UniProt Q04759)
Procedure: as §1

TAOK1 = TAOK1 (Homo sapiens, UniProt Q7L7X3)
Procedure: as §1

ERK3 = ERK3 (Homo sapiens, UniProt Q16659)
Procedure: as §1

TRKC = TRKC (Homo sapiens, UniProt Q16288)
Procedure: as §1

[4] = molecular target: JAK2(JH1domain-catalytic) (Homo sapiens, UniProt O60674)
Procedure: as §1

CAMK1G = CAMK1G (Homo sapiens, UniProt Q96NX5)
Procedure: as §1

ITK = ITK (Homo sapiens, UniProt Q08881)
Procedure: as §1

EGFR(L858R) = EGFR(L858R) (Homo sapiens, UniProt P00533, L858R)
Procedure: as §1

[5] = molecular target: TYK2(JH1domain-catalytic) (Homo sapiens, UniProt P29597)
Procedure: as §1

BMPR1B = BMPR1B (Homo sapiens, UniProt O00238)
Procedure: as §1

NIM1 = NIM1 (Homo sapiens, UniProt Q8IY84)
Procedure: as §1

MLK3 = MLK3 (Homo sapiens, UniProt Q16584)
Procedure: as §1

TAK1 = TAK1 (Homo sapiens, UniProt O43318)
Procedure: as §1

DDR1 = DDR1 (Homo sapiens, UniProt Q08345)
Procedure: as §1

PAK7 = PAK7 (Homo sapiens, UniProt Q9P286)
Procedure: as §1

PRKG1 = PRKG1 (Homo sapiens, UniProt Q13976)
Procedure: as §1

OSR1 = OSR1 (Homo sapiens, UniProt O95747)
Procedure: as §1

[6] = molecular target: ABL1(Y253F)-phosphorylated (Homo sapiens, UniProt P00519, Y253F)
Procedure: as §1

PAK3 = PAK3 (Homo sapiens, UniProt O75914)
Procedure: as §1

LYN = LYN (Homo sapiens, UniProt P07948)
Procedure: as §1

INSRR = INSRR (Homo sapiens, UniProt P14616)
Procedure: as §1

BRK = BRK (Homo sapiens, UniProt Q13882)
Procedure: as §1

PKN2 = PKN2 (Homo sapiens, UniProt Q16513)
Procedure: as §1

MARK3 = MARK3 (Homo sapiens, UniProt P27448)
Procedure: as §1

ROCK1 = ROCK1 (Homo sapiens, UniProt Q13464)
Procedure: as §1

CDK2 = CDK2 (Homo sapiens, UniProt P24941)
Procedure: as §1

[7] = molecular target: RPS6KA4(Kin.Dom.1-N-terminal) (Homo sapiens, UniProt O75676)
Procedure: as §1

NEK11 = NEK11 (Homo sapiens, UniProt Q8NG66)
Procedure: as §1

STK33 = STK33 (Homo sapiens, UniProt Q9BYT3)
Procedure: as §1

CDK9 = CDK9 (Homo sapiens, UniProt P50750)
Procedure: as §1

EGFR(L858R), sequence (P00533 25-1210 L858R): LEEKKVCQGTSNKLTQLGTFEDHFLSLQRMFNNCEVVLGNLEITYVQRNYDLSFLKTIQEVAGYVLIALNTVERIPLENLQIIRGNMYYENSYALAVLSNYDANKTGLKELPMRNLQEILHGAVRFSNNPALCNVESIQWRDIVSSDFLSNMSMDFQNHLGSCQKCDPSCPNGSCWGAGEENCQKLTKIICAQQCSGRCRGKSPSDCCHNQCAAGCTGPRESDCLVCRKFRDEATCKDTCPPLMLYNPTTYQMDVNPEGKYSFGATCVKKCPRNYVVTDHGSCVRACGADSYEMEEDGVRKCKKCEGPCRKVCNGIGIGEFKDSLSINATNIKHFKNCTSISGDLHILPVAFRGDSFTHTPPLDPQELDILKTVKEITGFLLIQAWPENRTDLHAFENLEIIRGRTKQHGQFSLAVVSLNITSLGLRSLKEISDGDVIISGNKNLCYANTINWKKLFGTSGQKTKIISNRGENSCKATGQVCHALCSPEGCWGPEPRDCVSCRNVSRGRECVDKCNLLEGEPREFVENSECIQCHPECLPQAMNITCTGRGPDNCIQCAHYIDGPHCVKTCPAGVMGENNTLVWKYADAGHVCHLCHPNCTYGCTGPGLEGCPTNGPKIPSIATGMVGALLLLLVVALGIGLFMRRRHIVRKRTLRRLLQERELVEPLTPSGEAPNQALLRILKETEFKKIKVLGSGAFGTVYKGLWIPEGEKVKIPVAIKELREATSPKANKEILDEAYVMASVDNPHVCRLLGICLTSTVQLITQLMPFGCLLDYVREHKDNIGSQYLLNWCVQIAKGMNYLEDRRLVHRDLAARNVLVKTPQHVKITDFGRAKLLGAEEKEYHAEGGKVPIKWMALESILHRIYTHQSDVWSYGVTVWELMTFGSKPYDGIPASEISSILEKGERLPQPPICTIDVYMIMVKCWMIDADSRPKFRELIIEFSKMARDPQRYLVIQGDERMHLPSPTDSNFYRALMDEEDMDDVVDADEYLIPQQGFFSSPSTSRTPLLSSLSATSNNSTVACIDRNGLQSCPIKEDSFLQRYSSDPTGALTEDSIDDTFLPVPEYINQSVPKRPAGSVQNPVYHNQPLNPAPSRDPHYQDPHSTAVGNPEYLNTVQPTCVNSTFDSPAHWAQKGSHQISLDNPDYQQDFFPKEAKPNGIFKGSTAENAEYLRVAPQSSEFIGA
PAK7, sequence (Q9P286 whole entry): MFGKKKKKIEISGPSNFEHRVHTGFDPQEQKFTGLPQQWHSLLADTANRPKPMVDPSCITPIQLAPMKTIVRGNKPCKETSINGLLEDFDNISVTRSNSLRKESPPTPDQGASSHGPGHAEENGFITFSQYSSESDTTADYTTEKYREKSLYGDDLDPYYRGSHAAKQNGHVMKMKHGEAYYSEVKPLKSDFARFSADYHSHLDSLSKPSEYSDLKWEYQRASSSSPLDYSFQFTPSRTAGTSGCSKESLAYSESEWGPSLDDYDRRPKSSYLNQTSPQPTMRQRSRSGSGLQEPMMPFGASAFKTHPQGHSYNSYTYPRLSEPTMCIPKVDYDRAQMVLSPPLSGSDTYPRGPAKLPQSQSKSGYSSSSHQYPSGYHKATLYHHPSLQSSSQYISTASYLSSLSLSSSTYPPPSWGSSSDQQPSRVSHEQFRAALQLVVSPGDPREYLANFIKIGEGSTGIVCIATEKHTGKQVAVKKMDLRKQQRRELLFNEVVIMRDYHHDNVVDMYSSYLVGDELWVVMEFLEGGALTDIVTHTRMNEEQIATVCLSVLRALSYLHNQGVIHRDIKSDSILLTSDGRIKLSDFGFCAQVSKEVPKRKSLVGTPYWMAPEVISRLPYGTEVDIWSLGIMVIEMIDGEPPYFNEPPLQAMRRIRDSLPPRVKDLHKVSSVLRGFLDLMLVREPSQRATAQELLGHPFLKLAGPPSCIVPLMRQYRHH
PAK3, sequence (O75914 whole entry): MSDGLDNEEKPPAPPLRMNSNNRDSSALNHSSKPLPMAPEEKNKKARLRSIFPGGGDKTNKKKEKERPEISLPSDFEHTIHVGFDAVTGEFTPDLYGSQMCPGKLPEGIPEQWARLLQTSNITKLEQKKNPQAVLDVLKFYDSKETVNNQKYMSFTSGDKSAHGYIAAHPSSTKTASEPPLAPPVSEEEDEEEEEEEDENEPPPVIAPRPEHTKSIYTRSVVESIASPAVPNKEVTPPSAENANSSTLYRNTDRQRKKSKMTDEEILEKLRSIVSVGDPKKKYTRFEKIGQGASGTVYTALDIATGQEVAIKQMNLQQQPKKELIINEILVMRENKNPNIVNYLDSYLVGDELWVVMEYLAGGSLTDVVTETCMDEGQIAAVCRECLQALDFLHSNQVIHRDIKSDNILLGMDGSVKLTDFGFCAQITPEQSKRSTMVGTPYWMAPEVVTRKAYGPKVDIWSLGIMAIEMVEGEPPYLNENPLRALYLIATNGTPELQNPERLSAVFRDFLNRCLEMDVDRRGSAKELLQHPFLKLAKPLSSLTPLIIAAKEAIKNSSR
TAK1, sequence (O43318 whole entry): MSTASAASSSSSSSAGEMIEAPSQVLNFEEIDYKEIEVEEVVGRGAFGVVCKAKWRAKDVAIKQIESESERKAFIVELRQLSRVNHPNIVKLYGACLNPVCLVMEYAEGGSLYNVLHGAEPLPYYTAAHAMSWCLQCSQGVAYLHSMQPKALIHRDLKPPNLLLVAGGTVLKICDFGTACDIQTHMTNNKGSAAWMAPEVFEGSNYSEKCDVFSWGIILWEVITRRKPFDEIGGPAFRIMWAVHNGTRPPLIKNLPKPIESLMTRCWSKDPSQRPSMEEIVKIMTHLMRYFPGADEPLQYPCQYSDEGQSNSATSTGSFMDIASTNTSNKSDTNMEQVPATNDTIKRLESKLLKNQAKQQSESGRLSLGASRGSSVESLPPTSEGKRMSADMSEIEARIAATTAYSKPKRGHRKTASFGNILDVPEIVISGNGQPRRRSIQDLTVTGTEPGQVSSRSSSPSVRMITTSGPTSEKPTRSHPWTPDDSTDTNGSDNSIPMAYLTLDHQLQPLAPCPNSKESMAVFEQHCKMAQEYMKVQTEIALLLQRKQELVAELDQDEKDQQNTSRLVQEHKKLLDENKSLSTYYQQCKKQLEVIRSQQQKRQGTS
NEK10, sequence (Q6ZWH5 whole entry): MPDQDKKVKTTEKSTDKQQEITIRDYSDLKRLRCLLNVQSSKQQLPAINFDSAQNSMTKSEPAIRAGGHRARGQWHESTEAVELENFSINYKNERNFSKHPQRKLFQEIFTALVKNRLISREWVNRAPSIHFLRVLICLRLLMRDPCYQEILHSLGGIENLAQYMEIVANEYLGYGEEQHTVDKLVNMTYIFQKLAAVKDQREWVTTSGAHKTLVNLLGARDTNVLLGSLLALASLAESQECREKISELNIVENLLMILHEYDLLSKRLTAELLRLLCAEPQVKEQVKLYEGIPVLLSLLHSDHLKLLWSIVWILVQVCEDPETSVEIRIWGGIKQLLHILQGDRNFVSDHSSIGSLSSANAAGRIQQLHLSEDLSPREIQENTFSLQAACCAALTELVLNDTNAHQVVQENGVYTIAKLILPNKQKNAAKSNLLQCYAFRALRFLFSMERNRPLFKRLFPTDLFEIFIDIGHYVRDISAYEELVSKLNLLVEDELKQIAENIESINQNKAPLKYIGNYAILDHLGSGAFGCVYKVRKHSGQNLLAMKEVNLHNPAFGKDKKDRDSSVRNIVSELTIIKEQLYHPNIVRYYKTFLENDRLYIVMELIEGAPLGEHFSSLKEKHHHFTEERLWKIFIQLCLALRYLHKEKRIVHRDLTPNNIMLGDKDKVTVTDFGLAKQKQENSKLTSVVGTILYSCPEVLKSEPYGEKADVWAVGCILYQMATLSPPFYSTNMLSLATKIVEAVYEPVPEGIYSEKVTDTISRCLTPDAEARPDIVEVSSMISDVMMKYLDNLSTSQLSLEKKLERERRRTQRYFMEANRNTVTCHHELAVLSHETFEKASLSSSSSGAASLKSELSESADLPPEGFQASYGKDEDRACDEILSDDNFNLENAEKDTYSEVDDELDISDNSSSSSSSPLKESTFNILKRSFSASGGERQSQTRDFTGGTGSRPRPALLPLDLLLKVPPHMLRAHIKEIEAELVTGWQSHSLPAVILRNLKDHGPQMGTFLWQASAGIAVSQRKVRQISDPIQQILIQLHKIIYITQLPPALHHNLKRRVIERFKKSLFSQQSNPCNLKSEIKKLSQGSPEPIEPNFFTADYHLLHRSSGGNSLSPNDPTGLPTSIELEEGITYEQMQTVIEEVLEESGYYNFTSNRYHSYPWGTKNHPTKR
JAK2(JH1domain-catalytic), sequence (O60674 849-1124 limits assumed): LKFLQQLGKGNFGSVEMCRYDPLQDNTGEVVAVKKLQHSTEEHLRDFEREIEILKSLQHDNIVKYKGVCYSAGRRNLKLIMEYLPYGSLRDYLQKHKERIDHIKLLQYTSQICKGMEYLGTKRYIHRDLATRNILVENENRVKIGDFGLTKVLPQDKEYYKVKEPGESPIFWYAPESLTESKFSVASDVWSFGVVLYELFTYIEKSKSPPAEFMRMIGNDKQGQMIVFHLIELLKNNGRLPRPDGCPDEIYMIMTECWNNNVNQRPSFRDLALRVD
BMPR1B, sequence (O00238 14-502): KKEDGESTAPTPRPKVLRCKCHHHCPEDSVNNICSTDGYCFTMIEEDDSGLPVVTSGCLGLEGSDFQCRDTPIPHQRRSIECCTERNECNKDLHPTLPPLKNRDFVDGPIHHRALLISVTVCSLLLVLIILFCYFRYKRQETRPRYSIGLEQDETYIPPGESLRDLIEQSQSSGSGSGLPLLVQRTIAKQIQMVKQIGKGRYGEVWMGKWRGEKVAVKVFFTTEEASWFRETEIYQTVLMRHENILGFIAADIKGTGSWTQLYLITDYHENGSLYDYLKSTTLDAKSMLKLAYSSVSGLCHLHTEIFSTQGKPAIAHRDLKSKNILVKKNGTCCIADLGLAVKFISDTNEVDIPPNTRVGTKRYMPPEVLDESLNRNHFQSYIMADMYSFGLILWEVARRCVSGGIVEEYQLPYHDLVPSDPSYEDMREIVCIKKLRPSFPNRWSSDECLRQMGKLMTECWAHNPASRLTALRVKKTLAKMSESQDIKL

Question: Which results are given for `O=C1CCC(N2C(=O)c3cccc(NCCCCCCCCNC(=O)N4CC[C@H](NC5=Nc6cc(F)ccc6N(CC(F)F)c6ccc(Cl)cc65)C4)c3C2=O)C(=O)N1` (stereo partly drawn) [BJG-05-039, (3S)-3-((2-Chloro-5-(2,2-difluoroethyl)-8-fluoro-5H-dibenzo[b,e][1,4]diazepin-11-yl)amino)-N-(8-((2-(2,6-dioxopiperidin-3-yl)-1,3-dioxoisoindolin-4-yl)amino)octyl)pyrrolidine-1-carboxamide]?
Answer: remaining binding at 10 µM (MST3): 52%; remaining binding at 10 µM [1]: 48%; remaining binding at 10 µM (NEK10): 99%; remaining binding at 10 µM [2]: 100%; remaining binding at 10 µM (YSK4): 93%; remaining binding at 10 µM (SRPK2): 91%; remaining binding at 10 µM [3]: 87%; remaining binding at 10 µM (RIOK1): 84%; remaining binding at 10 µM (PRKCQ): 77%; remaining binding at 10 µM (TAOK1): 95%; remaining binding at 10 µM (ERK3): 64%; remaining binding at 10 µM (TRKC): 100%; remaining binding at 10 µM [4]: 99%; remaining binding at 10 µM (CAMK1G): 63%; remaining binding at 10 µM (ITK): 91%; remaining binding at 10 µM (EGFR(L858R)): 74%; remaining binding at 10 µM [5]: 91%; remaining binding at 10 µM (BMPR1B): 85%; remaining binding at 10 µM (NIM1): 89%; remaining binding at 10 µM (MLK3): 88%; remaining binding at 10 µM (TAK1): 100%; remaining binding at 10 µM (DDR1): 52%; remaining binding at 10 µM (PAK7): 42%; remaining binding at 10 µM (PRKG1): 57%; remaining binding at 10 µM (OSR1): 100%; remaining binding at 10 µM [6]: 100%; remaining binding at 10 µM (PAK3): 100%; remaining binding at 10 µM (LYN): 79%; remaining binding at 10 µM (INSRR): 65%; remaining binding at 10 µM (BRK): 72%; remaining binding at 10 µM (PKN2): 65%; remaining binding at 10 µM (MARK3): 83%; remaining binding at 10 µM (ROCK1): 100%; remaining binding at 10 µM (CDK2): 69%; remaining binding at 10 µM [7]: 59%; remaining binding at 10 µM (NEK11): 100%; remaining binding at 10 µM (STK33): 75%; remaining binding at 10 µM (CDK9): 53%
